From patent US4510143A, “Antiallergic pyrimido[1,2-a]quinoxalin-2-carboxylic acid derivatives” (Roussel Uclaf, priority 1982, dated 1985)

Test system: passive cutaneous reaction mediated by Ig G antibodies
Experiment: Passive cutaneous anaphylaxis in the rat (PCR), inhibition of Ig G PCR after oral administration
Format: in vivo
Details: male Wistar rats, 4 hour sensitization, 1 mg ovalbumen challenge
Method: Passive cutaneous anaphylaxis in the rat (PCR)
Passive cutaneous anaphylaxis in the rat was carried out in male Wistar rats weighing 180-200 g which were sensitized by intradermal injection into four sites on shaved backs to produce a passive cutaneous reaction mediated by Ig G antibodies (a 4 hour sensitization following injection of antiserum heated at 56° C. for one hour). Antigen challenge was carried out in the same way with 1 mg of ovalbumen together with 0.5 ml of 1% Evans blue dye solution being injected intravenously and 30 minutes later, the animals were killed and the severity and area of each blue spot was scored when viewed from the reverse side of the skin.

## O=C(O)c1cnc2cnc3ccccc3n2c1=O [Example 1, 1-oxo-1H-pyrimido[1,2-a]quinoxaline-2-carboxylic acid]
1 mg/kg
  % inhibition of Ig G PCR: 9.9%
10 mg/kg
  % inhibition of Ig G PCR: 50.3%

## O=C(Nc1nnn[nH]1)c1cnc2cnc3ccccc3n2c1=O [Example 2, N-(5-Tetrazolyl)-1-oxo-1H-pyrimido[1,2-a]quinoxaline-2-carboxamide]
1 mg/kg
  % inhibition of Ig G PCR: 29.9%
10 mg/kg
  % inhibition of Ig G PCR: 48.6%

## O=C(O)c1cnc2c(=O)[nH]c3ccccc3n2c1=O [Example 8, 1,5-dioxo-1,6-dihydropyrimido[1,2-a]quinoxalin-2-carboxylic acid]
0.1 mg/kg
  % inhibition of Ig G PCR: 40.5%
1 mg/kg
  % inhibition of Ig G PCR: 52.4%
10 mg/kg
  % inhibition of Ig G PCR: 94.1%

## O=C(Nc1nn[nH]n1)c1cnc2c(=O)[nH]c3ccccc3n2c1=O [Example 9]
0.1 mg/kg
  % inhibition of Ig G PCR: 19%
1 mg/kg
  % inhibition of Ig G PCR: 23%
10 mg/kg
  % inhibition of Ig G PCR: 35%

## Cn1c(=O)c2ncc(C(=O)O)c(=O)n2c2ccccc21 [Example 10]
1 mg/kg
  % inhibition of Ig G PCR: 15.6%
10 mg/kg
  % inhibition of Ig G PCR: 20.5%
